Read-outs that look alike come from different tables or passages of the source.
Target: Smo (Homo sapiens, UniProt Q99835)
Experiment: Bodipy-Cyclopamine Binding Assay (confirmation assay), Hek293-SMO cells

Smo, sequence (Q99835 28-787): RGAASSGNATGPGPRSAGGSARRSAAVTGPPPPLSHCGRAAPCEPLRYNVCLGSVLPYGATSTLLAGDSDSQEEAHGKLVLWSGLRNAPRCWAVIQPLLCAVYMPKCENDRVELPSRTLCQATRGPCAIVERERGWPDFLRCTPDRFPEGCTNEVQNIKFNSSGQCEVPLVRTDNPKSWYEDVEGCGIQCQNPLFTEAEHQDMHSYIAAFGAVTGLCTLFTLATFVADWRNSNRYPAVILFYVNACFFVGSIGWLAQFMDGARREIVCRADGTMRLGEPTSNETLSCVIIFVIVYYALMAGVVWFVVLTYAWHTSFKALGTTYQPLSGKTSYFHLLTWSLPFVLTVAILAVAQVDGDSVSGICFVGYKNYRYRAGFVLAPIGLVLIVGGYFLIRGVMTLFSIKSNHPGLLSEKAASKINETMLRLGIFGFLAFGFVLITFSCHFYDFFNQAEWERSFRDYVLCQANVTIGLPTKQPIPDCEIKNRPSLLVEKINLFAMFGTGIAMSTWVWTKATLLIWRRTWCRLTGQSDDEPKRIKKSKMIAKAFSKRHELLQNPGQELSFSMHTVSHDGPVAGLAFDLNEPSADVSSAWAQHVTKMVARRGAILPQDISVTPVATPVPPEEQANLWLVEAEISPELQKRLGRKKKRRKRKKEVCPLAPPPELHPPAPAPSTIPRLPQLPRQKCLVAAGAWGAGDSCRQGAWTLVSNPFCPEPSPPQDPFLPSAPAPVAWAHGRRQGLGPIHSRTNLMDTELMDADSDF

| SMILES | IC50 | IC50 (Smo IC50 (nM), confirmation assay, competition with 100 nM bodipy-cyclopamine, Hek293-SMO cells) |
| --- | --- | --- |
| Cc1cnc(-c2cc(N3CCc4nc(NC(=O)C(C)(C)C)ncc4C3)ncc2Cl)c(C)c1 [Compound A-93, N-(6-(5′-chloro-3,5-dimethyl-2,4′-bipyridin-2′-yl)-5,6,7,8-tetrahydropyrido-[4,3-d]pyrimidin-2-yl)pivalamide] | 104 nM |  |
| Cc1cnc(-c2cc(N3CCc4nc(NC(C)(C)C)ncc4C3)ncc2Cl)c(C)c1 [Compound A-61, N-tert-butyl-6-(5′-chloro-3,5-dimethyl-2,4′-bipyridin-2′-yl)-5,6,7,8-tetrahydro-pyrido-[4,3-d]pyrimidin-2-amine] | 14.1 nM |  |
| Cc1cnc(-c2cc(N3CCc4nc(S(C)(=O)=O)ncc4C3=O)ncc2Cl)c(C)c1 [Compound A-98, 6-(5′-chloro-3,5-dimethyl-2,4′-bipyridin-2′-yl)-2-(methyl-sulfonyl)-7,8-dihydro-pyrido[4,3-d]pyrimidin-5(6H)-one] | 835 nM |  |
| CCOC(=O)c1cn2c(n1)CN(c1cc(-c3ncc(C)cc3C)c(Cl)cn1)CC2 [Compound A-1, ethyl 7-(5′-chloro-3,5-dimethyl-2,4′-bipyridin-2′-yl)-5,6,7,8-tetrahydro-imidazo-[1,2-a]pyrazine-2-carboxylate] | 321 nM |  |
| CSc1ncc2c(n1)CCN(c1cc(-c3ncc(C)cc3C)c(Cl)cn1)C2=O [Compound A-96, 6-(5′-chloro-3,5-dimethyl-2,4′-bipyridin-2′-yl)-2-(methylthio)-7,8-dihydro-pyrido[4,3-d]pyrimidin-5(6H)-one] | 169 nM |  |
| Cc1cnc(-c2cc(N3CCc4nc(N5CC(C)NC(C)C5)sc4C3)ncc2Cl)c(C)c1 (stereo not drawn) [Compound A-30, 5-(5′-chloro-3,5-dimethyl-2,4′-bipyridin-2′-yl)-2-(3,5-dimethyl-piperazin-1-yl)-4,5,6,7-tetrahydro-thiazolo-[5,4-c]pyridine] | 69.7 nM |  |
| Cc1cnc(-c2cc(N3CCn4cc(C(=O)OCC5CC5)nc4C3)ncc2Cl)c(C)c1 [Compound A16, cyclopro-pylmeth-yl 7-(5′-chloro-3,5-dimethyl-2,4′-bipyridin-2′-yl)-5,6,7,8-tetrahydro-imidazo-[1,2-a]pyrazine-2-carboxylate] |  | 442 nM |
| Cc1ccc(-c2cc(N3CCc4nc(NC5CC5)ncc4C3)ncc2Cl)nc1 [Compound A-110, 6-(5′-chloro-5-methyl-2,4′-bipyridin-2′-yl)-N-cyclopropyl-5,6,7,8-tetrahydropyrido-[4,3-d]pyrimidin-2-amine] | > 1000 nM |  |
| Cc1cnc(-c2cc(N3CCn4cc(C(=O)N5CC(C)NC(C)C5)nc4C3)ncc2Cl)c(C)c1 (stereo not drawn) [Compound A-7, (7-(5′-chloro-3,5-dimethyl-2,4′-bipyridin-2′-yl)-5,6,7,8-tetrahydro-imidazo-[1,2-a]pyrazin-2-yl)(3,5-dimethyl-piperazin-1-yl)methanone] | 656 nM |  |
| CCOC(=O)Nc1nc2c(s1)CN(c1cc(-c3ncc(C)cc3C)c(Cl)cn1)CC2 [Compound A-37, ethyl 5-(5′-chloro-3,5-dimethyl-2,4′-bipyridin-2′-yl)-4,5,6,7-tetrahydro-thiazolo-[5,4-c]pyridin-2-ylcarbamate] | 487 nM |  |
| COCC(=O)Nc1nc2c(s1)CN(c1cc(-c3ncc(C)cc3C)c(Cl)cn1)CC2 [Compound A-27, N-(5-(5′-chloro-3,5-dimethyl-2,4′-bipyridin-2′-yl)-4,5,6,7-tetrahydro-thiazolo-[5,4-c]pyridin-2-yl)-2-methoxy-acetamide] | 423 nM |  |
| Clc1cnc(N2CCc3nc(NC4CC4)ncc3C2)cc1-c1cccnc1 [Compound A-118, 6-(5′-chloro-3,4′-bipyridin-2′-yl)-N-cyclopropyl-5,6,7,8-tetrahydro-pyrido-[4,3-d]pyrimidin-2-amine] | > 1000 nM |  |
| Clc1cnc(N2CCc3nc(NC4CC4)ncc3C2)cc1-c1ccccn1 [Compound A-113, 6-(5′-chloro-2,4′-bipyridin-2′-yl)-N-cyclopropyl-5,6,7,8-tetrahydropyrido-[4,3-d]pyrimidin-2-amine] | 470 nM |  |
| Cc1cnc(-c2cc(N3CCc4nc(NC(=O)CCN(C)C)sc4C3)ncc2Cl)c(C)c1 [Compound A-41, N-(5-(5′-chloro-3,5-dimethyl-2,4′-bipyridin-2′-yl)-4,5,6,7-tetrahydro-thiazolo-[5,4-c]pyridin-2-yl)-3-(dimethyl-amino)-propanamide] | 173 nM |  |
| Cc1cnc(-c2cc(N3CCn4cc(C(=O)N(C)CCO)nc4C3)ncc2Cl)c(C)c1 [Compound A-8, 7-(5′-chloro-3,5-dimethyl-2,4′-bipyridin-2′-yl)-N-(2-hydroxyethyl)-N-methyl-5,6,7,8-tetrahydro-imidazo-[1,2-a]pyrazine-2-carboxamide] | 2010 nM |  |
| Cc1cnc(-c2cc(N3CCc4nc(NC(=O)C(F)(F)F)sc4C3)ncc2Cl)c(C)c1 [Compound A-38, N-(5-(5′-chloro-3,5-dimethyl-2,4′-bipyridin-2′-yl)-4,5,6,7-tetrahydro-thiazolo-[5,4-c]pyridin-2-yl)-2,2,2-trifluoro-acetamide] | > 1000 nM |  |
| Cc1cnc(-c2cc(N3CCc4nc(NC(=O)C5CC5)sc4C3)ncc2Cl)c(C)c1 [Compound A-26, N-(5-(5′-chloro-3,5-dimethyl-2,4′-bipyridin-2′-yl)-4,5,6,7-tetrahydro-thiazolo-[5,4-c]pyridin-2-yl)cyclo-propane carboxamide] | 71 nM |  |
| CSc1ncc2c(n1)C(C)CN(c1cc(-c3ncc(C)cc3C)c(Cl)cn1)C2 (stereo not drawn) [Compound A-74, 6-(5′-chloro-3,5-dimethyl-2,4′-bipyridin-2′-yl)-8-methyl-2-(methylthio)-5,6,7,8-tetrahydro-pyrido-[4,3-d]-pyrimidine] | 575 nM |  |
| Cc1cnc(-c2cc(N3CCc4nc(Nc5ccccc5)ncc4C3)ncc2Cl)c(C)c1 [Compound A-62, 6-(5′-chloro-3,5-dimethyl-2,4′-bipyridin-2′-yl)-N-phenyl-5,6,7,8-tetrahydro-pyrido-[4,3-d]pyrimidin-2-amine] | 51.1 nM |  |
| Cc1cnc(-c2cc(N3CCc4nc(NC(=O)NC(C)C)ncc4C3)ncc2Cl)c(C)c1 [Compound A-92, 1-(6-(5′-chloro-3,5-dimethyl-2,4′-bipyridin-2′-yl)-5,6,7,8-tetrahydropyrido-[4,3-d]pyrimidin-2-yl)-3-isopropylurea] | 961 nM |  |
| Cc1cnc(-c2cc(N3Cc4cnc(N5CC(C)NC(C)C5)nc4C(C)C3)ncc2Cl)c(C)c1 (stereo not drawn) [Compound A-76, 6-(5′-chloro-3,5-dimethyl-2,4′-bipyridin-2′-yl)-2-(3,5-dimethyl-piperazin-1-yl)-8-methyl-5,6,7,8-tetrahydro-pyrido-[4,3-d]pyrimidine] | 147 nM |  |
| CNC(=O)c1cn2c(n1)CN(c1cc(-c3ncc(C)cc3C)c(Cl)cn1)CC2 [Compound A-6, 7-(5′-chloro-3,5-dimethyl-2,4′-bipyridin-2′-yl)-N-methyl-5,6,7,8-tetrahydro-imidazo-[1,2-a]pyrazine-2-carboxamide] | 1260 nM |  |
| CNc1ncc2c(n1)CCN(c1cc(-c3ncc(C)cc3C)c(Cl)cn1)C2 [Compound A-50, 6-(5′-chloro-3,5-dimethyl-2,4′-bipyridin-2′-yl)-N-methyl-5,6,7,8-tetrahydro-pyrido-[4,3-d]pyrimidin-2-amine] | 232 nM |  |
| Cc1cnc(-c2cc(N3CCn4cc(C(=O)N5CCOCC5)nc4C3)ncc2Cl)c(C)c1 [Compound A-5, (7-(5′-chloro-3,5-dimethyl-2,4′-bipyridin-2′-yl)-5,6,7,8-tetrahydro-imidazo-[1,2-a]pyrazin-2-yl)(morpholino) methanone] | 1150 nM |  |

— patent US9695178B2, “6-(2-pyridyl)-7,8-dihydro-5H-pyrido[4,3-D]pyrimidine analogs as hedgehog pathway signaling inhibitors and therapeutic applications thereof” (Suzhou Yunxuan Yiyao Keji Youxian Gongsi, priority 2013, dated 2017)
